Counter-ions that a name gives are not always drawn.

Assay [1] deals with TNF. As to the kind of experiment: Cytokine Induction in Human Cells: tumor necrosis factor (TNF) secreted by PBMCs, ELISA. The settings on record: 18 to 24 hours. Type of assay: cell-based. From the text:
(§1) An in vitro human blood cell system was used to assess cytokine induction by compounds of the invention. Activity is based on the measurement of interferon and tumor necrosis factor (ℑ) (IFN and TNF, respectively) secreted into culture media as described by Testerman et. al. In “Cytokine Induction by the Immunomodulators Imiquimod and S-27609”, Journal of Leukocyte Biology, 58, 365-372 (September, 1995). Blood Cell Preparation for Culture
(§2) Whole blood is collected by venipuncture into EDTA vacutainer tubes from healthy human donors. Peripheral blood mononuclear cells (PBMCs) are separated from whole blood by Histopaque®-1077 (Sigma Chemicals, St. Louis, Mo.) density gradient centrifugation. The PBMCs are suspended at 1.5-2×10^6 cells/mL in RPMI 1640 medium containing 10% fetal bovine serum, 2 mM L-glutamine and 1% penicillin/streptomycin solution (RPMI complete). 1 mL portions of PBMC suspension are added to 24 well flat bottom sterile tissue culture plates.
(§3) The compounds are solubilized in dimethyl sulfoxide (DMSO). The DMSO concentration should not exceed a final concentration of 1% for addition to the culture wells. The compounds are generally tested in a concentration range of from 0.1 to 100 μM.
(§4) The solution of test compound is added to the wells containing 1 mL of PBMCs in media. The plates are covered with plastic lids, mixed gently and then incubated for 18 to 24 hours at 37° C. with a 5% carbon dioxide atmosphere.
(§5) Following incubation the plates are centrifuged for 5-10 minutes at 1000 rpm (˜200×g) at 4° C. The cell culture supernatant is removed with a sterile polypropylene pipet and transferred to a 2 mL sterile cryotube. Samples are maintained at −70° C. until analysis.
Tumor necrosis factor (ℑ) (TNF) concentration is determined using an ELISA kit available from Genzyme, Cambridge, Mass. The results are expressed as pg/mL.
A general note: An ELISA detects its analyte on a solid surface through an enzyme-linked reagent.

Assay [2] relates to IFN. As to the kind of experiment: Cytokine Induction in Human Cells: interferon (IFN) secreted by PBMCs, A549/encephalomyocarditis bioassay. Type of assay: cell-based. The settings on record: 18 to 24 hours.
From the text: as §1, §2, §3, §4, §5
Interferon is determined by bioassay using A549 human lung carcinoma cells challenged with encephalomyocarditis. The details of the bioassay method have been described by G. L. Brennan and L. H. Kronenberg in “Automated Bioassay of Interferons in Micro-test Plates”, Biotechniques, June/July 78, 1983, incorporated herein by reference. Briefly stated the method is as follows: A549 cells are incubated with samples and standard interferon dilutions at 37° C. for 24 hours. The incubated cells are then infected with an inoculum of encephalomyocarditis virus. The infected cells are incubated for an additional 24 hours at 37° C. before quantifying for viral cytopathic effect. The viral cytopathic effect is quantified by staining followed by visual scoring of the plates. Results are expressed as alpha reference units/mL based on the value obtained for NIH Human Leukocyte IFN standard.
Further: call rule not given here.

For `CCCCc1nc2c(N)nc3cccnc3c2n1CCCCNC(=O)Nc1ccccc1` [Example 47, N-[4-(4-Amino-2-butyl-1H-imidazo[4,5-c][1,5]naphthyridin-1-yl)butyl]-N′-phenylurea], the TNF induction entry in assay [1] (Dose Concentration 0.1 μM) is reported as “−”; in assay [1] (Dose Concentration 1.0 μM), “+”; in assay [1] (Dose Concentration 10.0 μM), “+”; in assay [1] (Dose Concentration 100.0 μM), “+”. For the same compound, the IFN induction result in assay [2] (Dose Concentration 0.1 μM) is reported as “−”; in assay [2] (Dose Concentration 1.0 μM) it was “+”; in assay [2] (Dose Concentration 10.0 μM), “+”; in assay [2] (Dose Concentration 100.0 μM), “±”.
Regarding `CCCCc1nc2c(N)nc3cccnc3c2n1CCCCNC(=O)NC1CCCCC1` [Example 48, N-[4-(4-Amino-2-butyl-1H-imidazo[4,5-c][1,5]naphthyridin-1-yl)butyl]-N′-cyclohexylurea], the TNF induction entry in assay [1] (Dose Concentration 0.1 μM) is “−”; in assay [1] (Dose Concentration 1.0 μM), “+”; in assay [1] (Dose Concentration 10.0 μM), “+”; in assay [1] (Dose Concentration 100.0 μM), “−”. For the same compound, the IFN induction result is “+” in assay [2] (Dose Concentration 0.1 μM), “+” in assay [2] (Dose Concentration 1.0 μM), “+” in assay [2] (Dose Concentration 10.0 μM) and “−” in assay [2] (Dose Concentration 100.0 μM).
With `CCCCNC(=O)NCCCCn1c(CCCC)nc2c(N)nc3cccnc3c21` [Example 49, N-[4-(4-Amino-2-butyl-1H-imidazo[4,5-c][1,5]naphthyridin-1-yl)butyl]-N′-butylurea], the TNF induction entry in assay [1] (Dose Concentration 0.1 μM) is “−”; in assay [1] (Dose Concentration 1.0 μM), “+”; in assay [1] (Dose Concentration 10.0 μM), “+”; in assay [1] (Dose Concentration 100.0 μM), “+”. Besides, the IFN induction result in assay [2] (Dose Concentration 0.1 μM), in assay [2] (Dose Concentration 1.0 μM), in assay [2] (Dose Concentration 10.0 μM) and in assay [2] (Dose Concentration 100.0 μM) was “+” in each case.
Consider `CCCCc1nc2c(N)nc3cccnc3c2n1CCCCNC(=O)Oc1ccccc1` [Example 50, Phenyl N-[4-(4-Amino-2-butyl-1H-imidazo[4,5-c][1,5]naphthyridin-1-yl)butyl]carbamate], for which the TNF induction result is “+” in assay [1] (Dose Concentration 1.0 μM), “+” in assay [1] (Dose Concentration 10.0 μM) and “−” in assay [1] (Dose Concentration 100.0 μM). Besides, the IFN induction result is “+” in assay [2] (Dose Concentration 1.0 μM), “+” in assay [2] (Dose Concentration 10.0 μM) and “−” in assay [2] (Dose Concentration 100.0 μM).
Take `CCCCc1nc2c(N)nc3cccnc3c2n1CCCCNC(=O)c1ccco1` [Example 51, N-[4-(4-Amino-2-butyl-1H-imidazo[4,5-c][1,5]naphthyridin-1-yl)butyl]-2-furamide]: the TNF induction entry in assay [1] (Dose Concentration 1.0 μM) is given as “+”; in assay [1] (Dose Concentration 10.0 μM), “+”; in assay [1] (Dose Concentration 100.0 μM) it was “−”. Further, the IFN induction entry in assay [2] (Dose Concentration 1.0 μM), in assay [2] (Dose Concentration 10.0 μM) and in assay [2] (Dose Concentration 100.0 μM) was “+” each time.
On to `CCCCc1nc2c(N)nc3cccnc3c2n1CCCCNC(=O)c1ccccc1` [Example 52, N-[4-(4-Amino-2-butyl-1H-imidazo[4,5-c][1,5]naphthyridin-1-yl)butyl]benzamide], for which the TNF induction result in assay [1] (Dose Concentration 1.0 μM) was “+”; in assay [1] (Dose Concentration 10.0 μM), “+”; in assay [1] (Dose Concentration 100.0 μM), “−”. For the same compound, the IFN induction result in assay [2] (Dose Concentration 1.0 μM) is given as “+”; in assay [2] (Dose Concentration 10.0 μM), “+”; in assay [2] (Dose Concentration 100.0 μM), “−”.
In the case of `CCCCc1nc2c(N)nc3cccnc3c2n1CCCCNC(=O)NCc1ccccc1` [Example 53, N-[4-(4-Amino-2-butyl-1H-imidazo[4,5-c][1,5]naphthyridin-1-yl)butyl]-N′-benzylurea], the TNF induction entry is given as “−” in assay [1] (Dose Concentration 0.1 μM), “+” in assay [1] (Dose Concentration 1.0 μM), “+” in assay [1] (Dose Concentration 10.0 μM) and “−” in assay [1] (Dose Concentration 100.0 μM). Also, the IFN induction entry in assay [2] (Dose Concentration 0.1 μM), in assay [2] (Dose Concentration 1.0 μM), in assay [2] (Dose Concentration 10.0 μM) and in assay [2] (Dose Concentration 100.0 μM) was “+” throughout.
With `CCCCc1nc2c(N)nc3cccnc3c2n1CCCCNC(=O)c1cccnc1` [Example 54, N^3-[4-(4-Amino-2-butyl-1H-imidazo[4,5-c][1,5]naphthyridin-1-yl)butyl]nicotinamide], the TNF induction entry in assay [1] (Dose Concentration 1.0 μM), in assay [1] (Dose Concentration 10.0 μM) and in assay [1] (Dose Concentration 100.0 μM) was “+” throughout. Further, the IFN induction result in assay [2] (Dose Concentration 1.0 μM), in assay [2] (Dose Concentration 10.0 μM) and in assay [2] (Dose Concentration 100.0 μM) was “+” each time.
`CCCCc1nc2c(N)nc3cccnc3c2n1CCCCNC(=O)Cc1ccccc1` [Example 55, N-[4-(4-Amino-2-butyl-1H-imidazo[4,5-c][1,5]naphthyridin-1-yl)butyl]phenylaceatamide]: the results for the TNF induction entry in assay [1] (Dose Concentration 1.0 μM), in assay [1] (Dose Concentration 10.0 μM) and in assay [1] (Dose Concentration 100.0 μM) were “+”, “+” and “−”, respectively. For the same compound, the IFN induction result in assay [2] (Dose Concentration 1.0 μM), in assay [2] (Dose Concentration 10.0 μM) and in assay [2] (Dose Concentration 100.0 μM) was “+” throughout.
In the case of `CCCCc1nc2c(N)nc3cccnc3c2n1CCCCNC(=O)OCc1ccccc1` [Example 56, Benzyl N-[4-(4-Amino-2-butyl-1H-imidazo[4,5-c][1,5]naphthyridin-1-yl)butyl]carbamate], the TNF induction entry in assay [1] (Dose Concentration 0.1 μM) is given as “−”; in assay [1] (Dose Concentration 1.0 μM), “−”; in assay [1] (Dose Concentration 10.0 μM) it was “+”; in assay [1] (Dose Concentration 100.0 μM) it was “−”. Further, the IFN induction entry in assay [2] (Dose Concentration 0.1 μM) is listed as “−”; in assay [2] (Dose Concentration 1.0 μM) it was “+”; in assay [2] (Dose Concentration 10.0 μM), “+”; in assay [2] (Dose Concentration 100.0 μM) it was “−”.
`CCCCc1nc2c(N)nc3cccnc3c2n1CCCCNC(=O)OCC1c2ccccc2-c2ccccc21` [Example 57, 9H-9-Fluorenylmethyl N-[4-(4-Amino-2-butyl-1H-imidazo[4,5-c][1,5]naphthyridin-1-yl)butyl]carbamate]: the TNF induction result in assay [1] (Dose Concentration 0.1 μM) was “−”; in assay [1] (Dose Concentration 1.0 μM), “−”; in assay [1] (Dose Concentration 10.0 μM), “+”; in assay [1] (Dose Concentration 100.0 μM), “+”. Moreover, the IFN induction result in assay [2] (Dose Concentration 0.1 μM) is “−”; in assay [2] (Dose Concentration 1.0 μM), “+”; in assay [2] (Dose Concentration 10.0 μM), “+”; in assay [2] (Dose Concentration 100.0 μM), “+”.
For the compound `CCCCc1nc2c(N)nc3cccnc3c2n1CCCCNC(=O)OCC` [Example 58, Ethyl N-[4-(4-Amino-2-butyl-1H-imidazo[4,5-c][1,5]naphthyridin-1-yl)butyl]carbamate], the TNF induction result in assay [1] (Dose Concentration 0.1 μM) is reported as “−”; in assay [1] (Dose Concentration 1.0 μM) it was “+”; in assay [1] (Dose Concentration 10.0 μM), “+”; in assay [1] (Dose Concentration 100.0 μM), “−”. For the same compound, the IFN induction entry in assay [2] (Dose Concentration 0.1 μM) was “+”; in assay [2] (Dose Concentration 1.0 μM), “+”; in assay [2] (Dose Concentration 10.0 μM) it was “+”; in assay [2] (Dose Concentration 100.0 μM), “−”.
As for `CCCCc1nc2c(N)nc3cccnc3c2n1CCNC(=O)CCc1ccccc1` [Example 96, N^1-[2-(4-Amino-2-butyl-1H-imidazo[4,5-c][1,5]naphthyridin-1-yl)ethyl]-3-phenylpropanamide Hydrochloride], the TNF induction result was “−” in assay [1] (Dose Concentration 0.1 μM), “−” in assay [1] (Dose Concentration 1.0 μM), “+” in assay [1] (Dose Concentration 10.0 μM) and “+” in assay [1] (Dose Concentration 100.0 μM). In addition, the IFN induction entry in assay [2] (Dose Concentration 0.1 μM) is “−”; in assay [2] (Dose Concentration 1.0 μM), “±”; in assay [2] (Dose Concentration 10.0 μM) it was “+”; in assay [2] (Dose Concentration 100.0 μM), “+”.
For `CCCCc1nc2c(N)nc3cccnc3c2n1CCNC(=O)C(N)CC(C)C` (centres unmarked) [Example 102, N^1-[2-(4-Amino-2-butyl-1H-imidazo[4,5-c][1,5]naphthyridin-1-yl)ethyl]-2-amino-4-methylpentanamide], the TNF induction result in assay [1] (Dose Concentration 0.1 μM), in assay [1] (Dose Concentration 1.0 μM), in assay [1] (Dose Concentration 10.0 μM) and in assay [1] (Dose Concentration 100.0 μM) was “+” in each case. For the same compound, the IFN induction result in assay [2] (Dose Concentration 0.1 μM), in assay [2] (Dose Concentration 1.0 μM), in assay [2] (Dose Concentration 10.0 μM) and in assay [2] (Dose Concentration 100.0 μM) was “+” in each case.
On to `CCCCc1nc2c(N)nc3cccnc3c2n1CCCCNC(=O)CCCCn1cnc2c1c(=O)n(C)c(=O)n2C` [Example 105, N^1-[4-(4-Amino-2-butyl-1H-imidazo[4,5-c][1,5]naphthyridin-1-yl)butyl]-5-(1,3-dimethyl-2,6-oxo-2,3,6,7-tetrahydro-1H-purinyl)pentamide], for which the TNF induction entry is “−” in assay [1] (Dose Concentration 0.1 μM), “−” in assay [1] (Dose Concentration 1.0 μM), “+” in assay [1] (Dose Concentration 10.0 μM) and “+” in assay [1] (Dose Concentration 100.0 μM). For the same compound, the IFN induction entry in assay [2] (Dose Concentration 0.1 μM), in assay [2] (Dose Concentration 1.0 μM), in assay [2] (Dose Concentration 10.0 μM) and in assay [2] (Dose Concentration 100.0 μM) was “+” in each case.

Source of the values: patent publication US7678918B2, “Intermediates for imidazonaphthyridines” (3M Innovative Properties Company, priority 1997, dated 2010).
